According to patent US10913787B2, “Method of identifying musk compounds” (Firmenich SA, priority 2015, dated 2021):
One block for each compound: values may come before it.

Legend:
[1] = test system: mouse Olfr96; experiment: cell-based cAMP HTRF dose-response assay, tagged mouse Olfr96 in HEK293T cells
Description: (§1) In a further embodiment, to complete the deorphanization process, the candidate OR genes are further expressed in vitro for confirmation of activity against the compounds used to isolate the olfactory sensory neurons and other structurally-related compounds of interest. The mouse receptors identified from isolated olfactory neurons that respond to both Musk compounds are modified at their N-terminus with short polypeptide sequences (e.g., Flag (SEQ ID NO: 6), Rho (SEQ ID NO: 8; 20 first amino acids of the bovine rhodopsin receptor), or Lucy (SEQ ID NO: 10) tags), transiently expressed in HEK 293T cells, and stimulated separately with Musk compounds to confirm their identity as bona fide Musk compound receptors. Co-expression of the human G alpha subunit Gαolf in this cell-based assay activates the Gs transduction pathway that leads to an internal cAMP increase upon binding to the appropriate ligand. Alternatively, co-expression of the human G alpha subunit Gals in the cell based assay activates the Gq transduction pathway that leads to an internal Ca^2+ increase upon binding to the appropriate ligand. The above process and the results obtained so far serve to validate the process for rapid and reliable identification of mammalian odorant receptors for Musk compounds.
Functional dose-response experiments were performed to evaluate the level of functional activity of the modified cell line. Using a cell-based assay, mouse Olfr96 was tested in an HEK293T cell line wherein the endogenous RTP1 gene has been activated and the odorant receptor chaperone was expressed. Flag-Rho-tagged receptor genes were co-transfected with the olfactory canonical G-protein Goff gene and were exposed to increasing concentrations of the Musk odorants Tonalide, Vulcanolide, and Muscone. Odorant-induced activity was detected by measuring the cAMP increase in the cytosol using an HTRF based kit (CisBio, cAMP dynamic 2 kit, 62AM4PEJ). […] In an additional repeat experiment using the same conditions, mouse Olfr96 and corresponding human ortholog OR11A1 were tested side by side in duplicate with a musk diversity set for specificity assessment.

[2] = biological target: T1, human ortholog OR11A1 (Homo sapiens, UniProt Q9GZK7); experiment: cell-based cAMP HTRF dose-response assay, tagged human OR11A1 in HEK293T cells; conditions: Lucy-Flag-Rho-tagged receptor, in duplicate, musk diversity set, FIG. 3
T1 construct: expressed in transfected cells
T1 sequence (Q9GZK7 1-315): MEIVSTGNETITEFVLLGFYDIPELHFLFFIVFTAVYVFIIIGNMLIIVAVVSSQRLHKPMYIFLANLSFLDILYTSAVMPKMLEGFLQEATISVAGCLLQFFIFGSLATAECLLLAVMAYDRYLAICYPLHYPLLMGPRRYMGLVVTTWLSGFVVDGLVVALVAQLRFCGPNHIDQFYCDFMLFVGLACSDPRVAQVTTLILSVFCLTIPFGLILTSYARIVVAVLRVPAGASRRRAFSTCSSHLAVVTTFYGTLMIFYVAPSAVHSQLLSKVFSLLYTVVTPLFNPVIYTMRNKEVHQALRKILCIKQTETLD
Description: as §1, with “The above process and the results obtained so far serve to validate the process for rapid and reliable identification of mammalian odorant receptors for Musk compounds.” left out
Functional dose-response experiments were performed to evaluate the level of functional activity of the modified cell line. […] Odorant-induced activity was detected by measuring the cAMP increase in the cytosol using an HTRF based kit (CisBio, cAMP dynamic 2 kit, 62AM4PEJ). […]

[3] = repeat experiment, Lucy-Flag-Rho-tagged receptor, HEK293T, in duplicate, musk diversity set, FIG. 3
[4] = Flag-Rho-tagged receptor, HEK293T with activated RTP1, increasing concentrations of odorant, FIG. 2

Compound: CC1C(C)(C)C2=C(C(=O)CCC2)C1(C)C (stereo not shown) [Cashmeran]
dose-dependent increase of Olfr96 receptor activity (cAMP increase in the cytosol) [1, 3]: dose-dependent increase

Compound: Cc1c([N+](=O)[O-])c(C)c([N+](=O)[O-])c(C(C)(C)C)c1[N+](=O)[O-] [Musk X]
dose-dependent increase of Olfr96 receptor activity (cAMP increase in the cytosol) [1, 3]: dose-dependent increase

Compound: CC(=O)c1cc2c(cc1C)C(C)(C)C(C)CC2(C)C (stereo not shown) [Tonalide]
dose-dependent increase of Olfr96 receptor activity (cAMP increase in the cytosol) [1, 4]: dose-dependent increase | dose-dependent increase of Olfr96 receptor activity (cAMP increase in the cytosol) [1, 3]: dose-dependent increase

dose-dependent increase of OR11A1 receptor activity (cAMP increase in the cytosol) [2]: dose-dependent increase
Compound: Cc1cc2c(cc1C=O)C(C)(C)[C@@H](C)[C@H](C)C2(C)C [Vulcanolide]
dose-dependent increase of Olfr96 receptor activity (cAMP increase in the cytosol) [1, 4]: dose-dependent increase | dose-dependent increase of Olfr96 receptor activity (cAMP increase in the cytosol) [1, 3]: dose-dependent increase
